Measured values reported in US12398154B2, “Azaquinazoline pan-KRas inhibitors” (Mirati Therapeutics, Inc., priority 2020, dated 2025).

Legend:
[1] = molecular target: KRas G12R (Homo sapiens, UniProt P01116, G12R); assay: biochemical;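 note: TR-FRET displacement assay of compound binding to KRas, read after one hour at room temperature, potency from a four-parameter fit of percent-of-control values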
Experimental: (§2) The ability of a compound to bind to KRas was measured using a TR-FRET displacement assay. […] After a 60-minute incubation at room temperature, the reaction was measured using a BMG LABTECH CLARIO star Plus via TR-FRET. […] The POC values were fit to a 4-parameter IC50 equation and the IC50 value reported.

[2] = tested on: pERK in H358 cells; assay: Inhibition of KRas phosphorylation of ERK (Cisbio HTRF pERK assay); conditions: Homo sapiens, NCI-H358, read-out: Inhibition (HTRF IC50) of KRas-mediated Phosphorylation of ERK, H358
Experimental: To harvest cells from flask using 0.05% Trypsin/EDTA solution. Add 10 mL of media to stop trypsinizing. Pipette the cells into a conical bottom 50 mL centrifuge tube and centrifuge 5 min×1000 rpm. • 2. Re-suspend the cell pellet in media, take a cell count, and then adjust the cell density using fresh media. • 3. Seed 6,000 cells into cell culture plate with 50 μL media. […] Incubate cell plate overnight in a 37° C., 5% CO2 incubator. • Compound titrations • 1. Use Tecan to complete the compound addition. Compounds start from 10 uM top, 3-fold dilution, and 10 doses. The final DMSO concentration is 0.8%. Dispensed 0.2 uM Trametinib as Min control. • 2. Incubate cell plate for 3 hrs in the incubator. • Detection with cisbio pERK HTRF kit • 1. […] At the end of the compound treatment, flick-off the media. • 3. Add 35 μL of lysis buffer per well using a Multidrop Combi. Then place on a plate agitator shaking at 300 rpm at 4° C. for 40 mins. • 4. Make up the HTRF antibody buffer. For each assay plate, mix 50 μL of d2-conjugate antibody with 950 μL of detection buffer. Similarly, mix 50 μL of Cryptate antibody with 950 μL of detection buffer. Then mix the two diluted antibodies together. • 5. Dispense 3.4 μL the antibody buffer to wells of an empty assay plate. Seal the plate and centrifuge plate 30 sec×1000 rpm. • 6. At the end of the 4° C. lysis, centrifuge the lysate plates 3 mins×1500 rpm. • 7. Use the Bravo to transfer 13.6 μL of lysate from cell culture plate to assay plate.
Then incubate assay plate for 2 hrs at room temperature. […] At the end of incubation, read plate on the Envision after centrifuging plate 30 sec× • 1000 rpm.

[3] = tested on: pERK in H727 cells; assay: as above; conditions: Homo sapiens, NCI-H727, read-out: Inhibition (HTRF IC50) of KRas-mediated Phosphorylation of ERK, H727
[4] = molecular target: KRas G12D (Homo sapiens, UniProt P01116, G12D); assay: biochemical;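 note: TR-FRET displacement binding assay on KRas, read after a one-hour incubation at room temperature, IC50 fitted from percent-of-control values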
Chain of KRas G12D (P01116 1-169 isoform P01116-2 G12D): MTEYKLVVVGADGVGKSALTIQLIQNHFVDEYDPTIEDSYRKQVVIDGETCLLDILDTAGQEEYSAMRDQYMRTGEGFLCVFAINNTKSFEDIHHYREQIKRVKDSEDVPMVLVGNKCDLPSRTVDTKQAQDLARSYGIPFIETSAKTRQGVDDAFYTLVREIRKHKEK
Experimental: as §2

[5] = tested on: pERK in PSN1 cells; assay: Inhibition of KRas phosphorylation of ERK (Cisbio HTRF pERK assay); conditions: Homo sapiens, PSN1, 3 h, read-out: Inhibition (HTRF IC50) of KRas-mediated Phosphorylation of ERK, PSN1
[6] = tested on: pERK in MKN1 cells; assay: as above; conditions: Homo sapiens, MKN-1, 3 h, read-out: Inhibition (HTRF IC50) of KRas-mediated Phosphorylation of ERK, MKN1
[7] = tested on: pERK in H460 cells; assay: as above; conditions: Homo sapiens, NCI-H460, read-out: Inhibition (HTRF IC50) of KRas-mediated Phosphorylation of ERK, H460
[8] = tested on: phospho-ERK in NCI-H727 (G12V) cells; assay: Inhibition of KRas-mediated phosphorylation of ERK (in-cell western); type: cell-based; conditions: Homo sapiens, NCI-H727, 3 h, 3 hours compound, phospho-ERK normalized to GAPDH
Outline: (§1)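 Cells were treated with compound for 3 hours (0.5% DMSO final), then fixed with formaldehyde and permeabilized with ice-cold methanol. Phospho-ERK (Thr202/Tyr204) was detected by antibody and normalized to GAPDH per well, expressed as percent of DMSO control, and IC50 obtained by 4-parameter fit.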

[9] = tested on: phospho-ERK in AsPC-1 (G12D) cells; assay: as above; type: cell-based; conditions: Homo sapiens, ASPC1, 3 h, 3 hours compound, phospho-ERK normalized to GAPDH
Outline: as §1

[10] = tested on: phospho-ERK in NCI-H460 (Q61H) cells; assay: as above; type: cell-based; conditions: Homo sapiens, NCI-H460, 3 h, 3 hours compound, phospho-ERK normalized to GAPDH
Outline: as §1

[11] = tested on: pERK in ASPC1 cells; assay: Inhibition of KRas phosphorylation of ERK (Cisbio HTRF pERK assay); conditions: Homo sapiens, ASPC1, read-out: Inhibition (HTRF IC50) of KRas-mediated Phosphorylation of ERK, AsPC-1
[12] = molecular target: KRas G12V (Homo sapiens, UniProt P01116, G12V); assay: biochemical;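 note: KRas binding measured by TR-FRET displacement at room temperature, IC50 fitted from percent of control values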
Chain of KRas G12V (P01116 1-169 isoform P01116-2 G12V): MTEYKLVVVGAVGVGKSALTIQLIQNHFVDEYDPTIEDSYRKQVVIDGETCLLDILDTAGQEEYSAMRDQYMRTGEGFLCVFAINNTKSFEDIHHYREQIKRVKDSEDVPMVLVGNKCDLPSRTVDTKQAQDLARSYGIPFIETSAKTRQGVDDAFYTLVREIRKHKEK
Experimental: as §2

[13] = tested on: pERK in HCT116 cells; assay: Inhibition of KRas phosphorylation of ERK (Cisbio HTRF pERK assay); conditions: Homo sapiens, HCT-116, read-out: Inhibition (HTRF IC50) of KRas-mediated Phosphorylation of ERK, HCT116
[14] = molecular target: KRas G12C (Homo sapiens, UniProt P01116, G12C); assay: biochemical;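 note: binding to KRas assessed by TR-FRET displacement after one hour incubation at room temperature, potency fitted from percent-of-control values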
Chain of KRas G12C (P01116 1-169 isoform P01116-2 G12C): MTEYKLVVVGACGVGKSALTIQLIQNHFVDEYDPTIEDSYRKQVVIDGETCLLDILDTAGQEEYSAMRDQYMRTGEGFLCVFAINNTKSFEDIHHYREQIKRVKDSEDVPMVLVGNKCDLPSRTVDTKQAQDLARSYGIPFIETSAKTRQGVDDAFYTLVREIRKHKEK
Experimental: as §2

[15] = molecular target: KRas G12S (Homo sapiens, UniProt P01116, G12S); assay: biochemical;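 note: TR-FRET displacement binding to KRas, read after one hour incubation at room temperature, IC50 from four-parameter fit of percent of control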
Chain of KRas G12S (P01116 1-169 isoform P01116-2 G12S): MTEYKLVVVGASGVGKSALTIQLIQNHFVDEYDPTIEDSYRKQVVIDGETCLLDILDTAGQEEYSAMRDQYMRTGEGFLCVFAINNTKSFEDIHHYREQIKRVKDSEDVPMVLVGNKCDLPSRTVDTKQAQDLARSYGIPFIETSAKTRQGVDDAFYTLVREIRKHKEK
Experimental: as §2

[16] = molecular target: KRas WT (Homo sapiens, UniProt P01116); assay: biochemical;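 note: binding to KRas read as TR-FRET displacement after a one-hour room-temperature incubation, IC50 derived from percent-of-control values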
Chain of KRas WT (P01116 1-169 isoform P01116-2): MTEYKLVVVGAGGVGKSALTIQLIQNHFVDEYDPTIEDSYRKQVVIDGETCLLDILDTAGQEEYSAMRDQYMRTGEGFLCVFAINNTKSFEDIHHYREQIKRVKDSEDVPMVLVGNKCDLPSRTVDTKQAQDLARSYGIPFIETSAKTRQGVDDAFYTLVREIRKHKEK
Experimental: as §2

[17] = molecular target: KRas G12A (Homo sapiens, UniProt P01116, G12A); assay: biochemical;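 note: binding to KRas measured by TR-FRET displacement after one hour at room temperature, IC50 from a four-parameter fit of percent-of-control values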
Chain of KRas G12A (P01116 1-169 isoform P01116-2 G12A): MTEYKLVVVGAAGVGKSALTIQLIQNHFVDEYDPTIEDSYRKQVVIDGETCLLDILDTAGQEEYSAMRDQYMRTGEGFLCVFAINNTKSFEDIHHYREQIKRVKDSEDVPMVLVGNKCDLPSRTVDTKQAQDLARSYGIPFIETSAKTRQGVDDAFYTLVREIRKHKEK
Experimental: as §2

Chain of KRas G12R (P01116 1-169 isoform P01116-2 G12R): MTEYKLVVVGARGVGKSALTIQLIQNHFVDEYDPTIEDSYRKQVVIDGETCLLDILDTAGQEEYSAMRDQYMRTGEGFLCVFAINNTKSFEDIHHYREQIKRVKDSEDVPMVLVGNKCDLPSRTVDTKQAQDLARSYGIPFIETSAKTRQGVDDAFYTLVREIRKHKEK

## CCc1c(F)ccc2cc(O)cc(-c3ncc4c(N5CC(c6ccncc6)C5)nc(OC[C@@]56CCCN5C[C@H](F)C6)nc4c3F)c12 [Example 172, 5-ethyl-6-fluoro-4-(8-fluoro-2-(((2R,7aS)-2-fluorohexahydro-1H-pyrrolizin-7a-yl)methoxy)-4-(3-(pyridin-4-yl)azetidin-1-yl)pyrido[4,3-d]pyrimidin-7-yl)naphthalen-2-ol]
[1]
  IC50: ≤ 2 nM
[2]
  IC50: 6 nM
[3]
  IC50: 26 nM
[4]
  IC50: 9 nM
[5]
  IC50: ≥ 10000 nM
[6]
  IC50: 41 nM
[7]
  IC50: 32 nM
[8]
  IC50: 192 nM
[9]
  IC50: 481 nM
[10]
  IC50: 79 nM
[11]
  IC50: 96 nM
[12]
  IC50: ≤ 2 nM
[13]
  IC50: 170 nM

## CCc1c(F)ccc2cc(O)cc(-c3ncc4c(N5CCCC(C#N)CC5)nc(OC[C@@]56CCCN5C[C@H](F)C6)nc4c3F)c12 (stereo partly drawn) [Example 173]
[1]
  IC50: 6 nM
[2]
  IC50: 95 nM
[3]
  IC50: 263 nM
[4]
  IC50: 6 nM
[5]
  IC50: 5540 nM
[6]
  IC50: 42 nM
[7]
  IC50: 176 nM
[8]
  IC50: 304 nM
[9]
  IC50: 180 nM
[10]
  IC50: 145 nM
[11]
  IC50: 56 nM
[12]
  IC50: 4 nM
[13]
  IC50: 454 nM

## CCc1c(F)ccc2cc(O)cc(-c3ncc4c(N5CCCC6(C5)NC(=O)NC6=O)nc(OC[C@@]56CCCN5C[C@H](F)C6)nc4c3F)c12 (stereo partly drawn) [Example 196]
[1]
  IC50: ≤ 2 nM
[2]
  IC50: 31 nM
[3]
  IC50: 167 nM
[4]
  IC50: ≤ 2 nM
[5]
  IC50: 314 nM
[6]
  IC50: 39 nM
[7]
  IC50: 33 nM
[8]
  IC50: 452 nM
[9]
  IC50: 361 nM
[10]
  IC50: 48 nM
[11]
  IC50: 97 nM
[12]
  IC50: ≤ 2 nM
[13]
  IC50: 114 nM

## CCc1c(F)ccc2cc(O)cc(-c3ncc4c(N5CCCCCCC5)nc(OC[C@@]56CCCN5C[C@H](F)C6)nc4c3F)c12 [Example 325, 4-(4-(azocan-1-yl)-8-fluoro-2-(((2R,7aS)-2-fluorohexahydro-1H-pyrrolizin-7a-yl)methoxy)pyrido[4,3-d]pyrimidin-7-yl)-5-ethyl-6-fluoronaphthalen-2-ol]
[1]
  IC50: ≤ 2 nM
[14]
  IC50: ≤ 2 nM
[2]
  IC50: 164 nM
[15]
  IC50: ≤ 2 nM
[3]
  IC50: 45 nM
[4]
  IC50: ≤ 2 nM
[5]
  IC50: 5150 nM
[6]
  IC50: 17 nM
[7]
  IC50: 61 nM
[16]
  IC50: ≤ 2 nM
[17]
  IC50: ≤ 2 nM
[11]
  IC50: 49 nM
[12]
  IC50: ≤ 2 nM
[13]
  IC50: 56 nM

## CCc1c(F)ccc2cc(O)cc(-c3ncc4c(N5C[C@@H]6C[C@H](C5)[C@H](O)C6)nc(OCC5(CN(C)C)CC5)nc4c3F)c12 [Example 360, (1R,5R,6R)-3-(2-((1-((dimethylamino)methyl)cyclopropyl)methoxy)-7-(8-ethyl-7-fluoro-3-hydroxynaphthalen-1-yl)-8-fluoropyrido[4,3-d]pyrimidin-4-yl)-3-azabicyclo[3,2,1]octan-6-ol]
[1]
  IC50: ≤ 2 nM
[2]
  IC50: 19 nM
[3]
  IC50: 62 nM
[4]
  IC50: 5 nM
[5]
  IC50: 9190 nM
[6]
  IC50: 2 nM
[7]
  IC50: 54 nM
[11]
  IC50: 49 nM
[12]
  IC50: ≤ 2 nM
[13]
  IC50: 140 nM

## CCc1c(F)ccc2cc(O)cc(-c3ncc4c(N5CCC[C@@](C)(O)C5)nc(OCC(C)(C)CN(C)C)nc4c3F)c12 [Example 366, (R)-1-(2-(3-(dimethylamino)-2,2-dimethylpropoxy)-7-(8-ethyl-7-fluoro-3-hydroxynaphthalen-1-yl)-8-fluoropyrido[4,3-d]pyrimidin-4-yl)-3-methylpiperidin-3-ol]
[1]
  IC50: 9 nM
[2]
  IC50: 61 nM
[3]
  IC50: 185 nM
[4]
  IC50: 3 nM
[5]
  IC50: 5530 nM
[6]
  IC50: 11 nM
[7]
  IC50: 108 nM
[11]
  IC50: 60 nM
[12]
  IC50: 3 nM
[13]
  IC50: 321 nM

## C#Cc1c(F)ccc2cc(O)cc(-c3ncc4c(N5CCOCC(CO)C5)nc(OC[C@@]56CCCN5C[C@H](F)C6)nc4c3F)c12 (stereo partly drawn) [Example 391, 5-ethynyl-6-fluoro-4-(8-fluoro-2-(((2R,7aS)-2-fluorohexahydro-1H-pyrrolizin-7a-yl)methoxy)-4-(6-(hydroxymethyl)-1,4-oxazepan-4-yl)pyrido[4,3-d]pyrimidin-7-yl)naphthalen-2-ol]
[1]
  IC50: ≤ 2 nM
[2]
  IC50: 22 nM
[3]
  IC50: 74 nM
[4]
  IC50: ≤ 2 nM
[5]
  IC50: 3990 nM
[6]
  IC50: 12 nM
[7]
  IC50: 143 nM
[11]
  IC50: 61 nM
[12]
  IC50: ≤ 2 nM
[13]
  IC50: 563 nM

## O=S1(=O)NCC2(CCCN(c3nc(OC[C@@]45CCCN4C[C@H](F)C5)nc4c(F)c(-c5cc(O)cc6ccc(F)c(Br)c56)ncc34)C2)N1 (stereo partly drawn) [Example 411, 7-(7-(8-bromo-7-fluoro-3-hydroxynaphthalen-1-yl)-8-fluoro-2-(((2R,7aS)-2-fluorohexahydro-1H-pyrrolizin-7a-yl)methoxy)pyrido[4,3-d]pyrimidin-4-yl)-2-thia-1,3,7-triazaspiro[4.5]decane 2,2-dioxide]
[1]
  IC50: ≤ 2 nM
[2]
  IC50: 9 nM
[3]
  IC50: 83 nM
[4]
  IC50: ≤ 2 nM
[5]
  IC50: 146 nM
[6]
  IC50: 40 nM
[7]
  IC50: 48 nM
[11]
  IC50: 63 nM
[12]
  IC50: ≤ 2 nM
[13]
  IC50: 92 nM

## CC1(O)COCCN(c2nc(OC[C@@]34CCCN3C[C@H](F)C4)nc3c(F)c(-c4cc(O)cc5ccc(F)c(Cl)c45)ncc23)C1 (stereo partly drawn) [Example 419, 4-(7-(8-chloro-7-fluoro-3-hydroxynaphthalen-1-yl)-8-fluoro-2-(((2R,7aS)-2-fluorohexahydro-1H-pyrrolizin-7a-yl)methoxy)pyrido[4,3-d]pyrimidin-4-yl)-6-methyl-1,4-oxazepan-6-ol]
[1]
  IC50: 8 nM
[2]
  IC50: 58 nM
[3]
  IC50: 154 nM
[4]
  IC50: 3 nM
[5]
  IC50: 3480 nM
[6]
  IC50: 14 nM
[7]
  IC50: 182 nM
[11]
  IC50: 71 nM
[12]
  IC50: 3 nM
[13]
  IC50: 319 nM

## CCc1cccc2cc(O)c(F)c(-c3ncc4c(N5CCC[C@@](C)(O)C5)nc(OC[C@@]56CCCN5C[C@H](F)C6)nc4c3F)c12 [Example 472, (3R)-1-(7-(8-ethyl-2-fluoro-3-hydroxynaphthalen-1-yl)-8-fluoro-2-(((2R,7aS)-2-fluorohexahydro-1H-pyrrolizin-7a-yl)methoxy)pyrido[4,3-d]pyrimidin-4-yl)-3-methylpiperidin-3-ol]
[1]
  IC50: 18 nM
[2]
  IC50: 231 nM
[3]
  IC50: 406 nM
[4]
  IC50: 6 nM
[5]
  IC50: 9300 nM
[6]
  IC50: 80 nM
[7]
  IC50: 414 nM
[11]
  IC50: 89 nM
[12]
  IC50: 16 nM
[13]
  IC50: 1070 nM

## CCc1c(F)ccc2cc(O)cc(-c3ncc4c(N5CCCC6(CCSC6)C5)nc(OC[C@@]56CCCN5C[C@H](F)C6)nc4c3F)c12 (stereo partly drawn) [Example 476, 5-ethyl-6-fluoro-4-(8-fluoro-2-(((2R,7aS)-2-fluorotetrahydro-1H-pyrrolizin-7a(5H)-yl)methoxy)-4-(2-thia-7-azaspiro[4.5]decan-7-yl)pyrido[4,3-d]pyrimidin-7-yl)naphthalen-2-ol]
[1]
  IC50: 4 nM
[2]
  IC50: 35 nM
[3]
  IC50: 148 nM
[4]
  IC50: ≤ 2 nM
[5]
  IC50: 3590 nM
[6]
  IC50: 14 nM
[7]
  IC50: 99 nM
[11]
  IC50: 36 nM
[12]
  IC50: ≤ 2 nM
[13]
  IC50: 275 nM
